Laboratory results from patent US7892755B2, “Screening method” (Takeda Pharmaceutical Company Limited, priority 2004, dated 2011).

Legend:
mouse GPR35 = target: T1, mouse GPR35 (Mus musculus, UniProt Q9ES90, D300Y/S286F); assay: Reactivity on FLIPR, CHO-K1 cells transfected with mouse GPR35 expression vector; assay type: cell-based
T1 construct: the digestion product was inserted into plasmid vector pAKKO-111H; expressed in transfected cells; host or cells: CHO-K1 cells
Procedure: The CHO-K1 cell line (purchased from ATCC) was incubated in HAM F-12 medium (Invitrogen) supplemented with 10% fetal calf serum, unless otherwise indicated. On the day before transfection, the cells were inoculated at 4.5×10^5/10 cm^2 and incubated at 37° C. for 15 hours or more in a CO2 incubator adjusted to 5% CO2 concentration. Using Lipofectamine reagent (Invitrogen), transfection was performed according to modifications of the procedure attached to the reagent. When a 6-well plate was used as the incubator, the transfection was performed as follows. Two tubes each having a 1.5 ml volume were prepared and 100 μl each of Opti-MEM medium (Invitrogen) was dispensed in each tube. […] The cells obtained were counted and diluted to 5×10^4 cells per 100 μl of the medium. […]
To assay the changes in intracellular calcium levels on FLIPR, the following pretreatment was made. First, an assay buffer was prepared to add fluorescence dye Fluo-3AM (DOJIN) to the cells, or to wash the cells immediately before the FLIPR assay. […] After mixing them, the mixture was added to 10.6 ml of an assay buffer supplemented with 105 μl of fetal calf serum to give a fluorescence dye solution. […]

GPR35 = GPR35 (Homo sapiens, UniProt Q9HC97, S294R); assay: Changes in intracellular calcium levels on FLIPR, CHO cell line stably co-expressing human GPR35 and Gα16; assay type: cell-based; parameters: expressed in transfected cells
Procedure: The Gα16-stably expressed cell line (Gα16/CHO cell line) as a host cell was prepared by transfecting the Gα16 expression vector (Guthrie cDNA Resource Center) into CHO cells in a conventional manner and incubating at 37° C. under 5% CO2 in αMEM medium (containing nucleic acid; Invitrogen) supplemented with 10% fetal calf serum (Invitrogen), 50 units/ml penicillin/50 ug/ml streptomycin (CAMBREX) and 1 mg/ml geneticin (Invitrogen). The cells that were incubated for 2 days in αMEM medium (containing nucleic acid) supplemented only with 10% fetal calf serum charged in a 75 cm^2 flask were used for the transfection. The transfection was carried out using Lipofectamine reagent (Invitrogen) by a modification of the protocol attached to the reagent. First, 2 centrifuge tubes each having a 15 ml volume were prepared and 600 μl each of Opti-MEM medium (Invitrogen) was dispensed in each tube. Next, 4.8 μg of the expression vector was charged in one tube and in another tube 36 μl of Lipofectamine reagent was charged, which were mixed together. The mixture was settled for 20 minutes at room temperature. […] The cells obtained were counted and diluted with αMEM medium (containing no nucleic acid; Invitrogen) supplemented only with 10% dialyzed fetal calf serum to have 0.3, 1.5 and 7.5 cells per 100 μl of the medium. […]

T1 sequence (Q9ES90 whole entry S286F/D300Y): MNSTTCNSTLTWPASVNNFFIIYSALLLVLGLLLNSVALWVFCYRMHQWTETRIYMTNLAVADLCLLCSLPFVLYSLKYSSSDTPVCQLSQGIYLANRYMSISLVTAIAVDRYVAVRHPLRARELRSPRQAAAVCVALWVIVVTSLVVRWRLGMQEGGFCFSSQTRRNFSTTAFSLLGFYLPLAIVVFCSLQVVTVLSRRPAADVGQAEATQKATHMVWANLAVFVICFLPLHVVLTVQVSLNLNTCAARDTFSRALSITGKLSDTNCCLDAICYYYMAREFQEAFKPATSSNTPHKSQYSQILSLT
Chain of GPR35 (Q9HC97 whole entry S294R): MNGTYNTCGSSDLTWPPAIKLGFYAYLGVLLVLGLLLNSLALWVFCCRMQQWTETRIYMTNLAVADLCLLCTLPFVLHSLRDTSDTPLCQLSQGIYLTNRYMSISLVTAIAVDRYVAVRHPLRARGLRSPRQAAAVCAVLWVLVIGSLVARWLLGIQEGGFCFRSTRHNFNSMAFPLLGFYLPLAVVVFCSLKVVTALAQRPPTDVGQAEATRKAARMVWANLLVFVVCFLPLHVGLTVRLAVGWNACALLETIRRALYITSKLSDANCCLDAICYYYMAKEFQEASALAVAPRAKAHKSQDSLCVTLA

## O=C1N=c2cc([N+](=O)[O-])c([N+](=O)[O-])cc2=NC1=O [DNQX, 6,7-dinitroquinoxaline-2,3-dione]
Mouse GPR35
  reactivity of mouse GPR35 (FLIPR): responsive
GPR35
  intracellular calcium levels: increased
